Measured values reported in patent US4780466A, “Arylpiperazinylalkoxy derivatives of cyclic imides” (Hoechst-Roussel Pharmaceuticals, Inc., priority 1988, dated 1988).
Where a name gives a salt, the structure may show the parent alone.

Tests used:
Format in all cases: in vivo
mice [1] = experiment: 2-phenyl-1,4-benzoquinone-induced writhing test in mice (analgesic activity); settings: Mus musculus, sc, read-out: Phenylquinone Writhing ED50
Text: Compounds of the present invention are also useful as analgesic agents due to their ability to alleviate pain in mammals. […] Exptl. Biol. Med., 95,729 (1957)]

rats = experiment: Geller-conflict paradigm with rats (anxiolytic activity); settings: 10 mg/kg i.p.; pretreat interval usually one-half hour; male rats
Text: Compounds I of the present invention are also useful as anxiolytic agents. […] See Geller, Irving and Seifter, Psychopharmacologia Col. 1, 482-492 (1962). Male rats are used as test subjects. They are housed individually and food and water are available ad libitum until they are 300 to 400 grams prior to the start of training. Subsequently they are food deprived until their body weight is reduced to approximately 80% of original and it is maintained at this level by a restricted food diet.
The programming and test equipment consists of solid state devices, shockers and cages within sound-attentuated environmental enclosures. The data is recorded on both solid state print-out counters and cumulative recorders. The cages are equipped with a house-light, a single-lever, cue-lights, a liquid dipper, a speaker and a grid-floor connected to a shocker. Sweetened condensed milk delivered by the liquid-dipper serve as the positive reinforcement for all subjects.
The subjects are trained to lever-press for the milk reward in two distinct response-reward sections. In the anxiety or "conflict" segment, signaled by onset of both tone and cue-lights, a dipper of milk is delivered in response to each lever-press (CRF schedule of reinforcement). However lever presses during this period are also accompanied by a 40 m sec pulse of aversive footshock through the grid-floor. […]

mice [2] = experiment: Climbing mice assay (antipsychotic activity, apomorphine-induced climbing); settings: Mus musculus; ip, 30 minutes prior to apomorphine 1.5 mg/kg s.c.; CK-1 male mice
Experimental: Antipsychotic activity is determined in the climbing mice assay by methods similar to those described by P. Protais, et al., Psychopharmacol., 50, 1 (1976) and B. Costall, Eur. J. Pharmacol., 50, 39, (1978).
The subject CK-1 male mice (23-27 grams) are group-housed under standard laboratory conditions. The mice are individually placed in wire mesh stick cages (4'×4" by 10") and are allowed one hour for adaptation and exploration of the new environment. Then apomorphine is injected subcutaneously at 1.5 mg/kg, a dose causing climbing in all subjects for 30 minutes. Compounds to be tested for antipsychotic activity are injected intraperitoneally 30 minutes prior to the apomorphine challenge at a screening dose of 10 mg/kg.
For evaluation of climbing, 3 readings are taken at 10, 20 and 30 minutes after apomorphine administration according to the following scale:
4 paws on bottom (no climbing)
2 paws on the wall (rearing)
4 paws on the wall (full climb)
Mice consistently climbing before the injection of apomorphine are discarded.
With full-developed apomorphine climbing, the animals are hanging onto the cage walls, rather motionless, over longer periods of time. By constrast, climbs due to mere motor stimulation usually last only a few seconds.
The climbing scores are individually totaled (maximum score: 6 per mouse over 3 readings) and the total score of the control group (vehicle intraperitoneally; apomorphine subcutaneously) is set to 100%. ED50 values with 95% confidence limits, calculated by a linear regression analysis of some of the compounds of this invention are presented in Table 1.

| SMILES | ED50 (mice [1]) [mg/kg] | Geller CRF ratio (rats) | ED50 (mice [2]) [mg/kg] |
| --- | --- | --- | --- |
| COc1ccccc1N1CCN(CCCON2C(=O)CC3(CCCC3)CC2=O)CC1 [8-[3-[4-(2-Methoxyphenyl)-1-piperazinyl-propyloxy]-8-azaspiro[4.5]decan-7,9-dione hydrochloride hemihydrate] | 1.1 |  |  |
| CNC1=Nc2ccc(Cl)cc2C(c2ccccc2)=[N+]([O-])C1 [Chlorodiazepoxide, reference compound] |  | 3.6 |  |
| CN1CCN(C2=Nc3cc(Cl)ccc3Nc3ccccc32)CC1 [Clazapine, reference compound] |  |  | 8.1 |
| Cc1cccc(N2CCN(CCCON3C(=O)CC4(CCCC4)CC3=O)CC2)c1 [Example 5, 8-[3-[4-(3-Methylphenyl)-1-piperazinyl]propyloxy]-8-azaspiro[4.5]decan-7,9-dione hydrochloride hemihydrate] |  | 7.5 |  |
| COc1cccc(N2CCN(CCCON3C(=O)CC4(CCCC4)CC3=O)CC2)c1 [Example 8, 8-[3-[4-(3-Methoxyphenyl)-1-piperazinyl]propyloxy]-8-azaspiro-[4.5]decan-7,9-dione hydrochloride hemihydrate] |  |  | 10.9 |
| O=C1CC2(CCCC2)CC(=O)N1OCCCN1CCN(c2nsc3ccccc23)CC1 [Example 11, 8-[3-[4-(1,2-Benzisothiazol-3-yl)-1-piperazinyl]propyloxy]-8-azaspiro[4.5]decan-7,9-dione hydrochloride hemihydrate] | 0.9 |  | 5.7 |
| CC(C)=CCN1CCC2(C)c3cc(O)ccc3CC1C2C (centres unmarked) [Pentazocine, reference compound] | 1.3 |  |  |
